{"source": "paper PMC9481570", "about": "“A small molecule antagonist of SMN disrupts the interaction between SMN and RNAP II” (Nature Communications, 2022)", "key": {"SND1": {"biological_target": "T1, SND1 (Homo sapiens, UniProt Q7KZF4)", "T1 construct": "SND1 (aa 650–910); His (N, cleaved yes); made in house; host or cells: E. coli BL21 (DE3) Codon plus RIL", "T1 sequence (Q7KZF4 650-910)": "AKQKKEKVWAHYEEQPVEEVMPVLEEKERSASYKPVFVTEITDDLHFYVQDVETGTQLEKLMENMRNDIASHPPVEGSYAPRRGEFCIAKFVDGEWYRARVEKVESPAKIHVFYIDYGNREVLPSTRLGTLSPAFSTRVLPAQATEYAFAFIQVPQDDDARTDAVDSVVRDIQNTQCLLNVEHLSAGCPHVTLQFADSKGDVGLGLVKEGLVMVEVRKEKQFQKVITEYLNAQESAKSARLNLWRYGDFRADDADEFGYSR", "test": "ITC binding to SND1", "description": "The coding DNA fragments of following Tudor domains were cloned into pET28-MHL vector: SMN (aa 82–147), UHRF1 (aa 126–285), SMNDC1 (aa 53–130), TDRD3 (aa 554–611), SND1 (aa 650–910), TDRD2 (aa 327–420), FXR1 (aa 2–132), PHF1 (aa 28–87), SGF29 (aa 115–293), JMJD2A (aa 897–1101), 53BP1 (aa 1483–1606), SETDB1 (aa 190–410), LBR (aa 1–67), ZGPAT (aa 120–271). The coding regions of chromodomain of CBX7 (aa 8–62), PWWP domain of DNMT3A (aa 275–417), WD40 repeats of WDR5 (aa 24–334) and CW domain of ZCWPW2 (aa 21–78) were also subcloned into pET28-MHL vector to generate N-terminally His-tagged fusion protein. The MBT repeats of L3MBTL1 (aa 200–522) and L3MBTL2 (aa 170–625) were subcloned into pET28GST-LIC vector to generate N-terminally GST-His-tagged fusion protein. All the plasmids were generated by ligase independent cloning (Vazyme Biotech, C112 or ABclonal Technology, RK21020). […] The proteins were further purified by Superdex75 or Superdex200 gel-filtration column (GE Healthcare) in a buffer containing 20 mM Tris-HCl, pH 7.5, 150 mM NaCl and 1 mM DTT. For crystallization experiments, purified proteins were concentrated to 18 mg/mL for SMN, 23 mg/mL for UHRF1 and 10 mg/mL for TDRD3 in the gel-filtration buffer. […] The molecular weight of all protein samples was measured by mass spectrometry.\nFor the ITC measurement, the concentrated proteins were diluted into 20 mM Tris-HCl, pH 7.5, 150 mM NaCl (ITC buffer); the lyophilized compounds were dissolved in the same buffer, and the pH value was adjusted by adding 2 M NaOH or 2 M HCl. […] Compound concentrations were calculated from the mass and the volume of the solvent. […] The protein with a concentration of 50–100 μM was placed in the cell chamber, and the compounds with a concentration of 0.5–2 mM in syringe was injected in 25, 20, or 20 successive injections with a spacing of 180, 150, or 120 s for VP-ITC, iTC-200, or Nano-ITC, respectively, as previously described[30]–[32]. iTC-200 or Nano-ITC data were consistent with those from the VP-ITC instrument, based on ITC results of SMN-compound 1 detected by using all the instruments. […]"}, "L3MBTL2 (MBT)": {"biological_target": "T2, L3MBTL2 (MBT) (Homo sapiens, UniProt Q969R5)", "T2 construct": "L3MBTL2 (aa 170–625); GST-His (N, cleaved yes); made in house; host or cells: E. coli BL21 (DE3) Codon plus RIL", "T2 sequence (Q969R5 170-625)": "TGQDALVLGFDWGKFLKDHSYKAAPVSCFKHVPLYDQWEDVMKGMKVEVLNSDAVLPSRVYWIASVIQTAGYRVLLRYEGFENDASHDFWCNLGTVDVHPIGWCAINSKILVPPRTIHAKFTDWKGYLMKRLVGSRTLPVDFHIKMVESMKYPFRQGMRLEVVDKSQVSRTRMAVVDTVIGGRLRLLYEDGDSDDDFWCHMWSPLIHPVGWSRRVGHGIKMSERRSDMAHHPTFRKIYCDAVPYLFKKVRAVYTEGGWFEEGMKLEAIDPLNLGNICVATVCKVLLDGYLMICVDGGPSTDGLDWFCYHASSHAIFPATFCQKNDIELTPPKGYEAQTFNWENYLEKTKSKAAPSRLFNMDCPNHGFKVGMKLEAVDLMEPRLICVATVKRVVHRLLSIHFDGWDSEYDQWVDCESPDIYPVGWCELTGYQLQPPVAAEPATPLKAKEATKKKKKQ", "test": "ITC binding to MBT repeats of L3MBTL2", "details": "Fig. 1c", "description": "(§1) The coding DNA fragments of following Tudor domains were cloned into pET28-MHL vector: SMN (aa 82–147), UHRF1 (aa 126–285), SMNDC1 (aa 53–130), TDRD3 (aa 554–611), SND1 (aa 650–910), TDRD2 (aa 327–420), FXR1 (aa 2–132), PHF1 (aa 28–87), SGF29 (aa 115–293), JMJD2A (aa 897–1101), 53BP1 (aa 1483–1606), SETDB1 (aa 190–410), LBR (aa 1–67), ZGPAT (aa 120–271). The coding regions of chromodomain of CBX7 (aa 8–62), PWWP domain of DNMT3A (aa 275–417), WD40 repeats of WDR5 (aa 24–334) and CW domain of ZCWPW2 (aa 21–78) were also subcloned into pET28-MHL vector to generate N-terminally His-tagged fusion protein. The MBT repeats of L3MBTL1 (aa 200–522) and L3MBTL2 (aa 170–625) were subcloned into pET28GST-LIC vector to generate N-terminally GST-His-tagged fusion protein. All the plasmids were generated by ligase independent cloning (Vazyme Biotech, C112 or ABclonal Technology, RK21020). […] The molecular weight of all protein samples was measured by mass spectrometry.\n(§2) For the ITC measurement, the concentrated proteins were diluted into 20 mM Tris-HCl, pH 7.5, 150 mM NaCl (ITC buffer); the lyophilized compounds were dissolved in the same buffer, and the pH value was adjusted by adding 2 M NaOH or 2 M HCl. […] Compound concentrations were calculated from the mass and the volume of the solvent. […]"}, "SMN_Y109A": {"biological_target": "T3, SMN_Y109A (Homo sapiens, UniProt Q16637, Y109A)", "T3 construct": "SMN (aa 82–147); His (N, cleaved yes); made in house; host or cells: E. coli BL21 (DE3) Codon plus RIL", "T3 sequence (Q16637 82-147 Y109A)": "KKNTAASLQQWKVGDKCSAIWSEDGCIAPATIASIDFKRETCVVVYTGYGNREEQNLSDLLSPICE", "test": "ITC binding to SMN Tudor mutant Y109A", "details": "Fig. 3d", "description": "as §1, §2"}, "[1]": {"system": "UHRF1_TTD aromatic cage residues mutated to alanine", "test": "ITC binding to UHRF1 TTD aromatic cage mutants", "details": "Supplementary Fig. 9e", "description": "as §1, §2"}, "SGF29": {"biological_target": "T4, SGF29 (Homo sapiens, UniProt Q96ES7)", "T4 construct": "SGF29 (aa 115–293); His (N, cleaved yes); made in house; host or cells: E. coli BL21 (DE3) Codon plus RIL", "T4 sequence (Q96ES7 115-293)": "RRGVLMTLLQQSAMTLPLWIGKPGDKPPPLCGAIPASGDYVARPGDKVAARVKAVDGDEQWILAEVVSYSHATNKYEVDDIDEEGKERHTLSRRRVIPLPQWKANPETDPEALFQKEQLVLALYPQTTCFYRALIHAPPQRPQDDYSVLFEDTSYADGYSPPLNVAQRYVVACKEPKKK", "test": "ITC binding to SGF29", "details": "Fig. 1c", "description": "as §1, §2"}, "WDR5 (WD40)": {"biological_target": "T5, WDR5 (WD40) (Homo sapiens, UniProt P61964)", "T5 construct": "WDR5 (aa 24–334); His (N, cleaved yes); made in house; host or cells: E. coli BL21 (DE3) Codon plus RIL", "test": "ITC binding to WD40 repeats of WDR5", "details": "Fig. 1c", "description": "as §1, §2"}, "SND1_F740W": {"biological_target": "T6, SND1_F740W (Homo sapiens, UniProt Q7KZF4, F740W)", "T6 construct": "SND1 (aa 650–910); His (N, cleaved yes); made in house; host or cells: E. coli BL21 (DE3) Codon plus RIL", "T6 sequence (Q7KZF4 650-910 F740W)": "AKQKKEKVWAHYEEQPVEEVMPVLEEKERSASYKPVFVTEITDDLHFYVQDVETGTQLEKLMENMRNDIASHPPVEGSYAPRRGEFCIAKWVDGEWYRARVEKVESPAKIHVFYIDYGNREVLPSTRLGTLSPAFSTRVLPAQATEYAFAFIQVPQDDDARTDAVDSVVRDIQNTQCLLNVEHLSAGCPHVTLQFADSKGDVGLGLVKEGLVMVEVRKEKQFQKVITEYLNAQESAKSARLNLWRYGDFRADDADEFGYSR", "test": "ITC binding to SND1 mutant F740W", "details": "Supplementary Fig. 11c, iTC-200; read-out: Kd, ITC binding curve, SND1_F740W", "description": "as §1, §2"}}, "note": "Read-outs that look alike come from different tables or passages of the source."}
{"smiles": "Cn1c2c(c(=N)c3c1CCC3)CCC2", "note": "[Compound 1, 4-methyl-2,3,4,5,6,7-hexahydrodicyclopenta[b,e]pyridin-8(1H)-imine]", "values": [{"measurement": "Kd", "setting": "SND1; ITC, Fig. 1c, read-out: Kd (SND1)", "result": "> 100", "unit": "µM"}, {"measurement": "Kd", "setting": "SND1; Supplementary Fig. 11c, VP-ITC, read-out: Kd, ITC binding curve, SND1", "result": "244 ± 51", "unit": "µM"}, {"measurement": "ITC binding curve, SND1 (in words)", "setting": "SND1; Supplementary Fig. 2d", "result": "Weak binding"}, {"measurement": "Kd", "setting": "L3MBTL2 (MBT)", "result": "> 244", "unit": "µM"}, {"measurement": "Kd", "setting": "SMN_Y109A", "result": "15 ± 1", "unit": "µM"}, {"measurement": "binding affinity to UHRF1_TTD aromatic cage alanine mutants", "setting": "[1]", "result": "not affected significantly"}, {"measurement": "Kd", "setting": "SGF29", "result": "> 244", "unit": "µM"}, {"measurement": "Kd", "setting": "WDR5 (WD40)", "result": "> 244", "unit": "µM"}, {"measurement": "Kd", "setting": "SND1_F740W", "result": "38 ± 8", "unit": "µM"}]}
